In patent US20250263408A1 (Uniquest Pty Ltd, priority 2022, published 2025) one finds EC50 data, which are given here for 12 compounds.

For test [1], the target named is T1, Ba/F3-Syk cells (Homo sapiens, UniProt P43405).
T1 construct: fused on or other part: Possible but unprinted fusion partner: TEL (ETV6), the usual partner for Ba/F3 lines transformed by Syk; Nothing on a partner is printed
In words: Ba/F3 Proliferation Assay, Ba/F3-Syk cells (Resazurin). The test is classed as cell-based. To be noted: 48-hour incubation.

For test [2], the system named is Ba/F3-WT (wild type) cells. In words: Ba/F3 Proliferation Assay, Ba/F3-WT (wild type) cells with mIL-3 (Resazurin). The test is classed as cell-based. To be noted: Mus musculus, BaF3, 48 h, Ba/F3-WT cells +mIL-3, 48-hour incubation. Background: Alamar Blue is a resazurin reagent that responds to reducing activity.

Each structure is given as a SMILES string.

In general, EC50 refers to the concentration giving half of the maximal effect. Take `CC[C@@H](C)n1ccc(-c2cc(OC[C@@H]3CNCCO3)c3nccnc3c2)c1` [Compound 8.24, 7-{1-[(2R)-butan-2-yl]-1H-pyrrol-3-yl}-5-{[(2S)-morpholin-2-yl]methoxy}quinoxaline]: the EC50 was 12.9 nM in test [1] and over 1000 nM in test [2].

As for `CC[C@H](C)n1ccc(-c2cc(OC[C@@H]3CNCCO3)c3nccnc3c2)c1` [Compound 8.25, 7-{1-[(2S)-butan-2-yl]-1H-pyrrol-3-yl}-5-{[(2S)-morpholin-2-yl]methoxy}quinoxaline], the EC50 is 11.5 nM in test [1] and over 1000 nM in test [2].

As for `Cn1cc(-c2cc3ncccc3c(O[C@H]([C@@H]3CNCCO3)C(F)(F)F)n2)cn1` [Compound 10.2, 7-(1-methyl-1H-pyrazol-4-yl)-5-[(1R)-2,2,2-trifluoro-1-[(2S)-morpholin-2-yl]ethoxy]-1,6-naphthyridine], the EC50 in test [1] is 839 nM; in test [2], over 10000 nM.

Take `CC1(C)CNC[C@@H](COc2nc(-c3cnn4c3CCCC4)cc3ncccc23)O1` [Compound 10.3, 5-{[(2S)-6,6-dimethylmorpholin-2-yl]methoxy}-7-(4H,5H,6H,7H-pyrazolo[1,5-a]pyridin-3-yl}-1,6-naphthyridine]: the EC50 in test [1] is 365 nM; in test [2] it was over 10000 nM.

For `c1cnc2cc(-c3cnn4c3CCCC4)nc(OC[C@@H]3CNCCO3)c2c1` [Compound 10.4, 5-{[(2S)-morpholin-2-yl]methoxy}-7-{4H,5H,6H,7H-pyrazolo[1,5-a]pyridin-3-yl}-1,6-naphthyridine], the EC50 in test [1] came to 663 nM; in test [2], 8090 nM.

As for `Cn1cc(-c2cc3ncccc3c(O[C@@H]([C@@H]3CNCCO3)C(F)(F)F)n2)cn1` [Compound 10.5, 7-(1-methyl-1H-pyrazol-4-yl)-5-[(1S)-2,2,2-trifluoro-1-[(2S)-morpholin-2-yl]ethoxy]-1,6-naphthyridine], the EC50 in test [1] was 798 nM; in test [2], 3280 nM.

In the case of `CC(C)n1cc(-c2cc3ncccc3c(OC[C@]3(C)CNCCO3)n2)cn1` [Compound 10.6, 5-{[(2S)-2-methylmorpholin-2-yl]methoxy}-7-[1-(propan-2-yl)-1H-pyrazol-4-yl]-1,6-naphthyridine], the half-maximal effective concentration (EC50) is 106 nM in test [1] and 754 nM in test [2].

Turning to `CC(C)n1cc(-c2cc3ncccc3c(OC[C@@]3(C)CNCCO3)n2)cn1` [Compound 10.8, 5-{[(2R)-2-methylmorpholin-2-yl]methoxy}-7-[1-(propan-2-yl)-1H-pyrazol-4-yl]-1,6-naphthyridine], the half-maximal effective concentration (EC50) in test [1] stood at 81.1 nM; in test [2], 1900 nM.

For `Cn1ccc(-c2cc3ncccc3c(OC[C@@]3(C)CNCCO3)n2)c1` [Compound 10.9, 7-(1-methyl-1H-pyrrol-3-yl)-5-{[(2R)-2-methylmorpholin-2-yl]methoxy}-1,6-naphthyridine], the concentration giving a half-maximal response (EC50) in test [1] amounted to 148 nM; in test [2], 7040 nM.

Take `Cn1cc(-c2cc3ncccc3c(OC[C@@H]3CNCC(C)(C)CO3)n2)cn1` [Compound 10.10, 5-{[(2S)-6,6-dimethyl-1,4-oxazepan-2-yl]methoxy}-7-(1-methyl-1H-pyrazol-4-yl)-1,6-naphthyridine]: the EC50 in test [1] worked out at 271 nM; in test [2], 3680 nM.

Turning to `CC1(C)CNC[C@@H](COc2nc(-c3cnn(C(C)(C)C)c3)cc3ncccc23)OC1` [Compound 10.11, 7-(1-tert-butyl-1H-pyrazol-4-yl)-5-{[(2S)-6,6-dimethyl-1,4-oxazepan-2-yl]methoxy}-1,6-naphthyridine], the EC50 was found to be 80.8 nM in test [1] and 4140 nM in test [2].

As to `CC(C)n1cc(-c2cc3ncccc3c(OC[C@@H]3CNCC(C)(C)CO3)n2)cn1` [Compound 10.12, 5-{[(2S)-6,6-dimethyl-1,4-oxazepan-2-yl]methoxy}-7-[1-(propan-2-yl)-1H-pyrazol-4-yl]-1,6-naphthyridine], the EC50 in test [1] came to 86.1 nM; in test [2], 1920 nM.
